{
  "source": "patent US6465654B2",
  "about": "“Process for preparing 1-substituted, 2-substituted 1H-imidazo[4, 5-c]quinoline-4-amines” (3M Innovative Properties Company, priority 1991, dated 2002)",
  "key": {"interferon": {"test_system": "interferon", "test": "Interferon induction in mice", "type": "in vivo", "details": "mouse serum", "method_in_brief": "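Mouse serum collected at 1, 2 and 4 h (separate groups), pooled, stored at −70° C, then assayed as for human-cell interferon. Values in α/β reference units/mL against a mouse MU-1-IF standard; \"<\" marks levels below assay sensitivity.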"}, "interferon-α": {"test_system": "interferon-α", "test": "Interferon-α induction in human cells, PBM", "type": "cell-based", "details": "24 hours"}, "[1]": {"test_system": "vesicular stomatitis virus (VSV)", "test": "microbe, parasite or virus in culture", "type": "cell-based", "details": "Vesicular stomatitis virus, read-out: VSV Yield Inhibition"}, "MC-26 colon tumor cells": {"test_system": "MC-26 colon tumor cells", "test": "Inhibition of MC-26 tumors in mice, 21 day lung colony count", "details": "lung colonies day 21, 1×10^4 MC-26 cells i.v., control 55 ± 11", "protocol": "On day 0 female CDF1 mice are inoculated i.v. with 1×10^4 MC-26 colon tumor cells in a volume of 0.2 mL of saline per mouse. The mice are sacrificed 21 days later. The lungs are removed and fixed with WARF then allowed to stand for 30 minutes. The lobes are separated and the colonies are counted. Ten mice are in each treatment group and in the control group.\nThe mice in the control group were dosed orally with water (10 mL/Kg) on days 0, 1, 2, 3 and 4."}},
  "data": [
    {"smiles": "CCOCc1nc2c(N)nc3ccccc3c2n1CC(C)(C)O", "note": "[Example 99, 4-Amino-α,α-dimethyl-2-ethoxymethyl-1H-imidazo[4,5-c]quinoline-1-ethanol]", "values": [
      {"measurement": "Interferon induction in mice", "setting": "interferon; oral 0.3 mg/kg, 1 hr", "result": 1600, "unit": "Reference Units/mL"},
      {"measurement": "Interferon induction in mice", "setting": "interferon; oral 0.3 mg/kg, 2 hr", "result": 3500, "unit": "Reference Units/mL"},
      {"measurement": "Interferon induction in mice", "setting": "interferon; oral 0.3 mg/kg, 4 hr", "result": 390, "unit": "Reference Units/mL"},
      {"measurement": "Interferon induction in mice", "setting": "interferon; oral 1 mg/kg, 1 hr", "result": 2200, "unit": "Reference Units/mL"},
      {"measurement": "Interferon induction in mice", "setting": "interferon; oral 1 mg/kg, 2 hr", "result": 5100, "unit": "Reference Units/mL"},
      {"measurement": "Interferon induction in mice", "setting": "interferon; oral 1 mg/kg, 4 hr", "result": 460, "unit": "Reference Units/mL"},
      {"measurement": "Interferon induction in mice", "setting": "interferon; oral 3 mg/kg, 1 hr", "result": 1600, "unit": "Reference Units/mL"},
      {"measurement": "Interferon induction in mice", "setting": "interferon; oral 3 mg/kg, 2 hr", "result": 750, "unit": "Reference Units/mL"},
      {"measurement": "Interferon induction in mice", "setting": "interferon; oral 3 mg/kg, 4 hr", "result": "˜220 Reference Units/mL"},
      {"measurement": "Interferon induction in mice", "setting": "interferon; oral 10 mg/kg, 1 hr", "result": 2500, "unit": "Reference Units/mL"},
      {"measurement": "Interferon induction in mice", "setting": "interferon; oral 10 mg/kg, 2 hr", "result": 4600, "unit": "Reference Units/mL"},
      {"measurement": "Interferon induction in mice", "setting": "interferon; oral 10 mg/kg, 4 hr", "result": "˜220 Reference Units/mL"},
      {"measurement": "Interferon-α induction", "setting": "interferon-α; dose concentration 0.01 μg/mL", "result": "28 α Reference Units/mL"},
      {"measurement": "Interferon-α induction", "setting": "interferon-α; dose concentration 0.05 μg/mL", "result": "316 α Reference Units/mL"},
      {"measurement": "Interferon-α induction", "setting": "interferon-α; dose concentration 0.10 μg/mL", "result": "280 α Reference Units/mL"},
      {"measurement": "Interferon-α induction", "setting": "interferon-α; dose concentration 0.50 μg/mL", "result": "790 α Reference Units/mL"},
      {"measurement": "Interferon-α induction", "setting": "interferon-α; dose concentration 1.0 μg/mL", "result": "790 α Reference Units/mL"},
      {"measurement": "Interferon-α induction", "setting": "interferon-α; dose concentration 5.0 μg/mL", "result": "630 α Reference Units/mL"},
      {"measurement": "log reduction at 0.1 µg/mL", "setting": "[1]", "result": 5},
      {"measurement": "log reduction at 0.5 µg/mL", "setting": "[1]", "result": 5},
      {"measurement": "log reduction at 1 µg/mL", "setting": "[1]", "result": 5},
      {"measurement": "Number of Colonies", "setting": "MC-26 colon tumor cells; oral 1 mg/Kg on days 0-4", "result": "29 ± 4"},
      {"measurement": "Number of Colonies", "setting": "MC-26 colon tumor cells; oral 3 mg/Kg on days 0-4", "result": "17 ± 3"}
    ]},
    {"smiles": "CC(C)Cn1c(C(O)c2ccccc2)nc2c(N)nc3ccccc3c21", "note": "(stereo not drawn) [Example 48, 4-Amino-1-(2-methylpropyl)-α-phenyl-1H-imidazo[4,5-c]quinoline-2-methanol]", "values": [
      {"measurement": "Interferon induction in mice", "setting": "interferon; oral 0.3 mg/kg, 1 hr", "result": "<260", "unit": "Reference Units/mL"},
      {"measurement": "Interferon induction in mice", "setting": "interferon; oral 0.3 mg/kg, 2 hr", "result": "<260", "unit": "Reference Units/mL"},
      {"measurement": "Interferon induction in mice", "setting": "interferon; oral 0.3 mg/kg, 4 hr", "result": "<260", "unit": "Reference Units/mL"},
      {"measurement": "Interferon induction in mice", "setting": "interferon; oral 1 mg/kg, 1 hr", "result": 790, "unit": "Reference Units/mL"},
      {"measurement": "Interferon induction in mice", "setting": "interferon; oral 1 mg/kg, 2 hr", "result": 940, "unit": "Reference Units/mL"},
      {"measurement": "Interferon induction in mice", "setting": "interferon; oral 1 mg/kg, 4 hr", "result": "<260", "unit": "Reference Units/mL"},
      {"measurement": "Interferon induction in mice", "setting": "interferon; oral 3 mg/kg, 1 hr", "result": 1600, "unit": "Reference Units/mL"},
      {"measurement": "Interferon induction in mice", "setting": "interferon; oral 3 mg/kg, 2 hr", "result": 1600, "unit": "Reference Units/mL"},
      {"measurement": "Interferon induction in mice", "setting": "interferon; oral 3 mg/kg, 4 hr", "result": "˜510 Reference Units/mL"},
      {"measurement": "Interferon induction in mice", "setting": "interferon; oral 10 mg/kg, 1 hr", "result": 2000, "unit": "Reference Units/mL"},
      {"measurement": "Interferon induction in mice", "setting": "interferon; oral 10 mg/kg, 2 hr", "result": 2000, "unit": "Reference Units/mL"},
      {"measurement": "Interferon induction in mice", "setting": "interferon; oral 10 mg/kg, 4 hr", "result": "˜540 Reference Units/mL"},
      {"measurement": "Interferon-α induction", "setting": "interferon-α; dose concentration 0.10 μg/mL", "result": "3100 α Reference Units/mL"},
      {"measurement": "Interferon-α induction", "setting": "interferon-α; dose concentration 0.50 μg/mL", "result": "840 α Reference Units/mL"},
      {"measurement": "Interferon-α induction", "setting": "interferon-α; dose concentration 1.0 μg/mL", "result": "330 α Reference Units/mL"},
      {"measurement": "Interferon-α induction", "setting": "interferon-α; dose concentration 5.0 μg/mL", "result": "1300 α Reference Units/mL"},
      {"measurement": "melting point", "result": "125 to 140", "unit": "°C"}
    ]}
  ]
}
